Reference: patent US20250313563A1, “GLYCOGEN SYNTHASE KINASE 3 INHIBITORS AND USES THEREOF” (The Broad Institute, Inc., priority 2022, published 2025)
Read-outs that look alike come from different tables or passages of the source.

Columns and labels:
[1] = target: GSK3α (GST-full length GSK3α) (Homo sapiens (Human), UniProt P49840); assay: GSK3α TR-FRET kinase assay; format: biochemical
In short: (§1)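 1 nM GST-GSK3α/β + cpd, 30 min preinc; add 200 nM biotin-pS645 GS(631-650) peptide + ATP (α 4 μM / β 2 μM, or 1 mM); 100 min RT, 50 mM Tris pH 7.5, 20 mM MgCl2, 1% DMSO; EDTA stop; SA-d2/Tb-pSer641 Ab 60 min; 665/615 ratio → IC50.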

[2] = target: GSK3b (GST-full length GSK3b) (Homo sapiens (Human), UniProt P49841); assay: GSK3b TR-FRET kinase assay; format: biochemical
Chain of GSK3b (GST-full length GSK3b) (P49841 whole entry): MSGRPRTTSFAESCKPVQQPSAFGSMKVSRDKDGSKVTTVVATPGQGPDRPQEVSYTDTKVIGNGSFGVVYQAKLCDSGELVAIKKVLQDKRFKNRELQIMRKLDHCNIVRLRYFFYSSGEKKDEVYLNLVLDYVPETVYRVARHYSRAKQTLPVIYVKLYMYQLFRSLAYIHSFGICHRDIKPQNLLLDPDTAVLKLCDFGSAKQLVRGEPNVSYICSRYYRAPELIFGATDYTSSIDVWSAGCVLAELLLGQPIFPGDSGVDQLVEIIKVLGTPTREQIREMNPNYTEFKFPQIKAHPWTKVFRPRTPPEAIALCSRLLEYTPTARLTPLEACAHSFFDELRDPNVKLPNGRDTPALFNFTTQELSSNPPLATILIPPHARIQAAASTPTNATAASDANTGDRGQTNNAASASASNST
In short: as §1

[3] = 1 nM GSK3α, 4 μM ATP, 30 minute preincubation, geometric mean, read-out: GSK3-A TR-FRET BIOCHEMICAL (TR-FRET), GMean, IC50
[4] = 1 nM GSK3b, 2 μM ATP, 30 minute preincubation, geometric mean, read-out: GSK3-B TR-FRET BIOCHEMICAL (TR-FRET), GMean, IC50
[5] = 1 nM GSK3α, 4 μM ATP, 30 minute preincubation, Table 16, read-out: GSK3-A TR-FRET BIOCHEMICAL (TR-FRET), IC50
[6] = 1 nM GSK3b, 2 μM ATP, 30 minute preincubation, Table 16, read-out: GSK3-B TR-FRET BIOCHEMICAL (TR-FRET), IC50
[7] = read-out: GSK3-A (TR-FRET 1 mM ATP), GMean, IC50, 1 mM ATP, geometric mean
[8] = read-out: GSK3-B (TR-FRET 1 mM ATP), GMean, IC50, 1 mM ATP, geometric mean
[9] = 1 nM GSK3α, 4 μM ATP, 30 minute preincubation, read-out: GSK3-A TR-FRET BIOCHEMICAL (TR-FRET), IC50
[10] = 1 nM GSK3b, 2 μM ATP, 30 minute preincubation, read-out: GSK3-B TR-FRET BIOCHEMICAL (TR-FRET), IC50
[11] = 1 nM GSK3α, 4 μM ATP, 30 minute preincubation, Table 16, read-out: GSK3-A TR-FRET BIOCHEMICAL (TR-FRET)
[12] = 1 nM GSK3b, 2 μM ATP, 30 minute preincubation, Table 16, read-out: GSK3-B TR-FRET BIOCHEMICAL (TR-FRET)

Chain of GSK3α (GST-full length GSK3α) (P49840 whole entry): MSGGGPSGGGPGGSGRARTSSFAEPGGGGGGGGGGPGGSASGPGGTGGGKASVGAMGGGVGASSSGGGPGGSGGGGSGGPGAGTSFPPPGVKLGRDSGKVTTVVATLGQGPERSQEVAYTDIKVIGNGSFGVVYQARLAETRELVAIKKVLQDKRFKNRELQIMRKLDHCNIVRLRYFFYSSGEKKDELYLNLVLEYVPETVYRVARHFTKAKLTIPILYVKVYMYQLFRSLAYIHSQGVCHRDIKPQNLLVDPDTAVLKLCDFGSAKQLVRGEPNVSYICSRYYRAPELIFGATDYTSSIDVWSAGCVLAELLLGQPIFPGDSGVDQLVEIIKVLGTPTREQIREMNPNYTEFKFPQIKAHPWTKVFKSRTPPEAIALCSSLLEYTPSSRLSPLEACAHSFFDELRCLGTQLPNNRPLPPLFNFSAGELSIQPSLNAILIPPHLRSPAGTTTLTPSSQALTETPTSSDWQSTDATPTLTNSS

SMILES | IC50 [1, 3] | IC50 [2, 4] | further results
CC1(C)CC(=O)C2=C(C1)Nc1n[nH]c(C3(C(F)(F)F)CC3)c1C21CCc2c(F)cccc21 (centres unmarked) [Compound 816839] | > 5000 nM | 1000 to 5000 nM | –
CC1(C)CC(=O)C2=C(C1)Nc1n[nH]c(C3(C(F)(F)F)CC3)c1C21CCc2c(F)cccc21 (centres unmarked) [Compound 816840] | 1000 to 5000 nM | 100 to 1000 nM | –
CC[C@]1(c2ccccc2)C2=C(C[C@](C)(COC)CC2=O)Nc2n[nH]cc21 [Compound 816872] | > 5000 nM | > 5000 nM | –
CC[C@]1(c2ccccc2)C2=C(C[C@@](C)(COC)CC2=O)Nc2n[nH]cc21 [Compound 816873] | 100 to 1000 nM | 1000 to 5000 nM | –
CC[C@@]1(c2ccccc2)C2=C(C[C@](C)(COC)CC2=O)Nc2n[nH]cc21 [Compound 816874] | > 5000 nM | > 5000 nM | –
CC[C@@]1(c2ccccc2)C2=C(C[C@@](C)(COC)CC2=O)Nc2n[nH]cc21 [Compound 816875] | 100 to 1000 nM | 1000 to 5000 nM | –
CC[C@]1(c2ccccc2)C2=C(C[C@@]3(CCCOC3)CC2=O)Nc2n[nH]cc21 [Compound 816876] | > 5000 nM | > 5000 nM | –
CC[C@]1(c2ccccc2)C2=C(C[C@]3(CCCOC3)CC2=O)Nc2n[nH]cc21 [Compound 816877] | > 5000 nM | > 5000 nM | –
CC[C@@]1(c2ccccc2)C2=C(C[C@@]3(CCCOC3)CC2=O)Nc2n[nH]cc21 [Compound 816878] | 100 to 1000 nM | 1000 to 5000 nM | –
CC[C@@]1(c2ccccc2)C2=C(C[C@]3(CCCOC3)CC2=O)Nc2n[nH]cc21 [Compound 816879] | 100 to 1000 nM | 100 to 1000 nM | –
CC[C@]1(c2ccccc2)C2=C(C[C@]3(CCOC3)CC2=O)Nc2n[nH]cc21 [Compound 816880] | > 5000 nM | > 5000 nM | –
CC[C@]1(c2ccccc2)C2=C(C[C@@]3(CCOC3)CC2=O)Nc2n[nH]cc21 [Compound 816881] | 100 to 1000 nM | 1000 to 5000 nM | –
CC[C@@]1(c2ccccc2)C2=C(C[C@]3(CCOC3)CC2=O)Nc2n[nH]cc21 [Compound 816882] | > 5000 nM | > 5000 nM | –
CC[C@@]1(c2ccccc2)C2=C(C[C@@]3(CCOC3)CC2=O)Nc2n[nH]cc21 [Compound 816884] | 100 to 1000 nM | 1000 to 5000 nM | –
CCC1(c2cccc(N3CCOCC3)c2)C2=C(CC(C)(C)CC2=O)Nc2n[nH]c(C(F)(F)F)c21 (centres unmarked) [Compound 816886] | 1000 to 5000 nM | 1000 to 5000 nM | –
CCC1(c2cccc(CN3CCCCC3)c2)C2=C(CC(C)(C)CC2=O)Nc2n[nH]cc21 (centres unmarked) [Compound 819560] | 1000 to 5000 nM | > 5000 nM | –
CCC1(c2cccc(S(C)(=O)=O)c2)C2=C(CC(C)(C)CC2=O)Nc2n[nH]cc21 (centres unmarked) [Compound 819561] | ≤ 100 nM | ≤ 100 nM | –
CC1(C)CC(=O)C2=C(C1)Nc1n[nH]cc1C2(C)CCc1ccccc1 (centres unmarked) [Compound 819562] | – | – | IC50 [1, 5]: 1000 to 5000 nM; IC50 [2, 6]: > 5000 nM
CCC1(CCc2ccccc2)C2=C(CC(C)(C)CC2=O)Nc2n[nH]cc21 (centres unmarked) [Compound 819563] | – | – | IC50 [1, 5]: 1000 to 5000 nM; IC50 [2, 6]: > 5000 nM
CCC1(c2cccc(C(F)F)c2)C2=C(CC(C)(C)CC2=O)Nc2n[nH]cc21 (centres unmarked) [Compound 819564] | ≤ 100 nM | ≤ 100 nM | –
CCC1(c2cccc(Br)c2)C2=C(CC(C(F)(F)F)CC2=O)Nc2n[nH]cc21 (centres unmarked) [Compound 819565] | 100 to 1000 nM | 100 to 1000 nM | –
CC[C@@]1(c2ccccc2)C2=C(C[C@](C)(C(F)(F)F)CC2=O)Nc2n[nH]cc21 [Compound 819568] | 100 to 1000 nM | 100 to 1000 nM | –

SMILES | IC50 [1, 3] | IC50 [2, 4] | further results
CC[C@]1(c2ccccc2)C2=C(C[C@](C)(C(F)(F)F)CC2=O)Nc2n[nH]cc21 [Compound 819569] | 100 to 1000 nM | 1000 to 5000 nM | –
CC[C@]1(c2ccccc2)C2=C(C[C@@](C)(C(F)(F)F)CC2=O)Nc2n[nH]cc21 [Compound 819570] | > 5000 nM | > 5000 nM | –
CC[C@@]1(c2ccccc2)C2=C(C[C@@](C)(C(F)(F)F)CC2=O)Nc2n[nH]cc21 [Compound 819571] | > 5000 nM | > 5000 nM | –
CC[C@]1(c2ccccc2)C2=C(CC3(CCC3)CC2=O)Nc2n[nH]cc21 [Compound 819572] | > 5000 nM | > 5000 nM | –
CC[C@@]1(c2ccccc2)C2=C(CC3(CCC3)CC2=O)Nc2n[nH]cc21 [Compound 819573] | ≤ 100 nM | 100 to 1000 nM | –
CC[C@]1(c2cccc(N3CCCC3)c2)C2=C(CC(C)(C)CC2=O)Nc2n[nH]c(C(F)(F)F)c21 [Compound 819574] | ≤ 100 nM | ≤ 100 nM | IC50 [1, 7]: ≤ 100 nM; IC50 [2, 8]: ≤ 100 nM
CCC1(c2cccc(N3CCCC3)c2)C2=C(CC(C)(C)CC2=O)Nc2n[nH]c(C(F)(F)F)c21 (centres unmarked) [Compound 819575] | 100 to 1000 nM | ≤ 100 nM | IC50 [1, 7]: ≤ 100 nM; IC50 [2, 8]: ≤ 100 nM
CCC1(c2cccc(-c3cnn(C)c3)c2)C2=C(CC(C)(C)CC2=O)Nc2n[nH]cc21 (centres unmarked) [Compound 819576] | 100 to 1000 nM | 1000 to 5000 nM | –
CCC1(c2cccc(-c3cnn(C)c3)c2)C2=C(CC(C)(C)CC2=O)Nc2n[nH]cc21 (centres unmarked) [Compound 819577] | ≤ 100 nM | 100 to 1000 nM | IC50 [1, 7]: 100 to 1000 nM; IC50 [2, 8]: > 5000 nM
CCC1(c2cccc(C3CCOCC3)c2)C2=C(CC(C)(C)CC2=O)Nc2n[nH]cc21 (centres unmarked) [Compound 819638] | ≤ 100 nM | 100 to 1000 nM | IC50 [1, 7]: 100 to 1000 nM; IC50 [2, 8]: > 5000 nM
CCC1(c2cccc(C(F)(F)F)c2)C2=C(CC(C)(C)N(C)C2=O)Nc2n[nH]cc21 (centres unmarked) [Compound 823130] | – | – | IC50 [1, 9]: ≤ 100 nM; IC50 [2, 10]: 100 to 1000 nM
CCC1(c2cccc(-c3cnn(C)c3)c2)C2=C(CC(C)CC2=O)Nc2n[nH]cc21 (centres unmarked) [Compound 823720] | ≤ 100 nM | 100 to 1000 nM | –
CCC1(c2cccc(-c3cnn(C)c3)c2)C2=C(CC(C)CC2=O)Nc2n[nH]cc21 (centres unmarked) [Compound 823721] | ≤ 100 nM | 100 to 1000 nM | IC50 [1, 7]: 100 to 1000 nM; IC50 [2, 8]: > 5000 nM
CCC1(c2cccc(-c3cnn(C)c3)c2)C2=C(CC(C)CC2=O)Nc2n[nH]cc21 (centres unmarked) [Compound 823726] | > 5000 nM | > 5000 nM | –
CCC1(c2cccc(C(F)(F)F)c2)C2=C(CCN(C(C)C)C2=O)Nc2n[nH]cc21 (centres unmarked) [Compound 825755] | – | – | IC50 [1, 9]: ≤ 100 nM; IC50 [2, 10]: 100 to 1000 nM
CC1(C)CC(=O)C2=C(C1)Nc1n[nH]cc1C21CCOCC1 [Compound 826648, 7′,7′-dimethyl-2,2′,3,5,6,7′,8′,9′-octahydrospiro[pyran-4,4′-pyrazolo[3,4-b]quinolin]-5′ (6′H)-one] | – | – | IC50 [1, 11]: 100 to 1000 nM; IC50 [2, 12]: 100 to 1000 nM
CC(=O)N1CCC2(CC1)C1=C(CC(C)(C)CC1=O)Nc1n[nH]cc12 [Compound 826649] | – | – | IC50 [1, 11]: 100 to 1000 nM; IC50 [2, 12]: 1000 to 5000 nM
CC1(C)CC(=O)C2=C(C1)Nc1n[nH]cc1C21CCCCC1 [Compound 826650] | – | – | IC50 [1, 11]: ≤ 100 nM; IC50 [2, 12]: ≤ 100 nM
CC1(C)CC(=O)C2=C(C1)Nc1n[nH]cc1C21CCOC1 (centres unmarked) [Compound 826713] | – | – | IC50 [1, 11]: 100 to 1000 nM; IC50 [2, 12]: 100 to 1000 nM
CN1CCC2(CC1)C1=C(CC(C)(C)CC1=O)Nc1n[nH]cc12 [Compound 826714] | – | – | IC50 [1, 5]: > 5000 nM; IC50 [2, 6]: > 5000 nM
CCC1(c2cccc(Br)c2)C2=C(CC(C)CC2=O)Nc2n[nH]c(C(F)(F)F)c21 (centres unmarked) [Compound 826715] | ≤ 100 nM | ≤ 100 nM | –
CCC1(c2cccc(C(F)F)c2)C2=C(CC(C)(C)CC2=O)Nc2n[nH]cc21 (centres unmarked) [Compound 826716] | 100 to 1000 nM | > 5000 nM | –
